# From paper PMC5790467, “Enhanced anti-tumor efficacy and mechanisms associated with docetaxel-piperine combination- in vitro and in vivo investigation using a taxane-resistant prostate cancer model” (Oncotarget, 2017)
# Where two headings read alike, the source gives them in different places.
# Columns and labels:
# [1] = ketoconazole 200 mg once daily for three days; cancer patients; cited from earlier work
# PC3-TxR tumor xenografts = assay: Tumor growth in mice with PC3-TxR (taxane-resistant) tumor xenografts; assay type: in vivo, ICR-NOD/SCID mice; settings: DTX 20 mg/kg once a week i.v.
# Experimental: (§1) The following experimental protocol was adopted after approval by the Animal Research Ethics Committee at the Chinese University of Hong Kong. PC3 and PC3-TxR cells were cultured in RPMI 1640 medium containing 10% FBS and 1% penicillin-streptomycin in a humidified atmosphere of 5% CO2 at 37°C. PC3 and PC3-TxR cell pellets were re-suspended in serum free RPMI1640 and diluted by Matrigel™ Basement Membrane Matrix (BD Biosciences, Bedford, MA, USA) to the density of 3.33 × 10^6cells/ml. Male ICR-NOD/SCID mice (Laboratory Animal Services Center at the Chinese University of Hong Kong) weighing 25 to 30 g (age 6–8 weeks) was anesthetized with an intraperitoneal injection of a cocktail containing 87 mg/kg ketamine and 8.7 mg/kg xylazine (diluted with saline and the injection volume was about 0.1 ml). The cell suspension was injected subcutaneously to both the left and right flank region. The tumors were allowed to grow for about 2 weeks. Tumor volumes were measured twice per week (tumor volume = [(W^2 × L)/2], where W is the tumor measurement at the widest point, and L is the tumor dimension at the longest point). When the tumors reach about 100 mm^3, treatment was started and the date was designated as Day 0.
# [2] = DTX concentration in plasma and tissues of TxR tumor bearing mice (LC/MS/MS); assay type: in vivo, ICR-NOD/SCID mice; settings: for concentration at 2 h: ICR-NOD/SCID, mouse, iv, 20 mg/kg
# Experimental: On Day 14, mice were sacrificed two hours post drug administration. Blood samples were collected by cardiac puncture followed by centrifugation at 5000 rpm for 3 min for obtaining the plasma. Brain, lung, liver, kidney and tumor were collected and weighed. About 100 mg of each tissue samples were carefully weighed and homogenized after being spiked with 300 µl of formic acid (0.2%, v/v). About 50 µl of plasma or tissue homogenates were spiked with 5 µl of 50% acetonitrile in water and 150 µl of mixture of acetonitrile and methanol (50:50, v/v) containing glibenclamide at 50 ng/ml as internal standard. After centrifugation at 13000 rpm for 10 min, the supernatants were injected into LC/MS/MS system which consisted of an Agilent 6430 triple quadrupole mass spectrometer equipped with an electrospray ionization source (ESI), two Agilent 1290 series pumps and autosampler (Agilent Technologies, Inc., CA, USA). The analytes were separated using a Waters Nova-Pak^ÒC18 column (150 mm×3.9 mm, i.d., 4 µm particle size) protected by a collared frit (4/4.6 mm i.d., 0.5 µm pore size, Thermo Scientific full name, city, state, country). The mobile phase consisted of 0.2% formic acid and acetonitrile (50:50, v/v) with a flow rate at 0.4 ml/min.
# P-gp = P-gp (Homo sapiens, UniProt P08183); assay: Uptake of DTX in MDCK/MDR1 cells with or without PIP pre-incubation; assay type: cell-based; design: expressed in transfected cells; host or cells: MDCK (MDCK/MDR1), gift from Prof; P. Borst
# Sequence of P-gp (P08183 whole entry): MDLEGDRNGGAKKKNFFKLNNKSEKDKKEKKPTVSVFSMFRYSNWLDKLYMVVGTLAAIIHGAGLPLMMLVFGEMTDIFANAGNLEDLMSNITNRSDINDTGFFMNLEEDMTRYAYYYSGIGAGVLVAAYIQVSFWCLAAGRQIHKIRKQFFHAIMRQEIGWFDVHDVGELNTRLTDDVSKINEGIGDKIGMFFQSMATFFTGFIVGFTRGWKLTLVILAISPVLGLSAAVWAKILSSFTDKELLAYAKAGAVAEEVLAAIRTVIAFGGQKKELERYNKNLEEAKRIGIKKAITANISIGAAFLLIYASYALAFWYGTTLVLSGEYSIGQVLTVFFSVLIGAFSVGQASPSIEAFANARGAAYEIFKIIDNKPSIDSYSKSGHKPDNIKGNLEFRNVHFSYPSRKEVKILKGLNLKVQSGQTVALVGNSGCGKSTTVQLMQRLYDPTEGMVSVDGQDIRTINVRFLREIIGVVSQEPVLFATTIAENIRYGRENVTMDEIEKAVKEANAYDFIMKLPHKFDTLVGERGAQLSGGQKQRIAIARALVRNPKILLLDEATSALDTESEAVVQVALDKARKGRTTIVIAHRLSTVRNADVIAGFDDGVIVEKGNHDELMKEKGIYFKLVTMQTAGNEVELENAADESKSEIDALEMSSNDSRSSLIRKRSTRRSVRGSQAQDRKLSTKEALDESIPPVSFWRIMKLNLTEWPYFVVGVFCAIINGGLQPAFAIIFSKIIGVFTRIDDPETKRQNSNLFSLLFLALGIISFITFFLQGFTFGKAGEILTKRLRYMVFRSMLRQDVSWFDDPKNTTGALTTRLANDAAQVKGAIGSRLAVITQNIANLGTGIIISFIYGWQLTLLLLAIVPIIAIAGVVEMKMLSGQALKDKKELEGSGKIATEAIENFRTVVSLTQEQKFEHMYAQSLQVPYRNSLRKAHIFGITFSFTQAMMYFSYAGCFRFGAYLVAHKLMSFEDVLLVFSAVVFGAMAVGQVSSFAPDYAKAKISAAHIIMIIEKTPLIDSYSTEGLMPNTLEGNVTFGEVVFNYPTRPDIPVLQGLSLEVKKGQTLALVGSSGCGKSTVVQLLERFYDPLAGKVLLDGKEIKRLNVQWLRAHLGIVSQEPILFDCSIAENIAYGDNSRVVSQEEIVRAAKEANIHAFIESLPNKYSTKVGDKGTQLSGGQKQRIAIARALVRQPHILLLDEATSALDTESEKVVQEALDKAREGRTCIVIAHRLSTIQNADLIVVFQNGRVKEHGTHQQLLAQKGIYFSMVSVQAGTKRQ
# Experimental: MDCK cells transfected with human gene (MDCK/MDR1) were cultured in Dulbecco’s modified Eagle’s medium supplemented with 10% FBS and 1% penicillin-streptomycin. Cells were subcultured when the confluence reached 80% by trypsinization with 0.25% of trypsin-EDTA. MDCK/MDR1 cells were seeded at a density of 2 × 10^5 cells/well to 24-well and incubated for 24 h. […] After washing twice with ice-cold HBSS, cells were collected in 100 µl of formic acid (0.2%, v/v) using a scraper. BCA Protein Quantification Kit (Abcamplc., Cambridge, UK) was used to quantify the protein content. Cell lysate was treated by 300 µl of mixture of acetonitrile and methanol (50:50, v/v) containing glibenclamide at 50 ng/ml, followed by sonication for 15 min.
# [3] = Body weight and tolerability in mice with TxR tumor xenografts; settings: TxR tumor xenograft mice; two weeks of treatment; control 96%
# Experimental: For oral administration of PIP, in 1 ml of PIP dosing solution, 100 µl of its stock solution was solubilized with 500 µl of PEG 400 and 400 µl of physiological saline and the mixture was administrated orally to mice at the dose of 0.1 ml/10 g body weight. […] On Day 0, mice with PC3 cell xenografts were divided into two groups and mice with PC3-TxR cell xenografts were divided into four groups. Mice in each group were treated according to Supplementary Table 3 and the drug dosing lasted for 2 weeks with body weight and tumor sized measured twice per week. […] At the end of experiment, the mice were anesthetized followed by haemospasia to death by cardiac puncture.
# PC3 tumor xenografts = assay: Tumor growth in mice with PC3 tumor xenografts; assay type: in vivo, ICR-NOD/SCID mice; settings: DTX 20 mg/kg once a week i.v., n = 3
# Experimental: as §1
# PC3-TxR cells = assay: Cell viability (cytotoxicity) of PC3-TxR cells; assay type: cell-based; settings: Homo sapiens
# Excerpt: www.impactjournals.com/oncotarget/ Oncotarget, Supplementary Materials 2017
# investigation using a taxane-resistant prostate cancer model
# Supplementary Figure 1: Cell viability (measured from triplicate samples) of PC3-TxR cells. (A) The cytotoxicity of PIP
# (1 picture or pasted object on this page, not shown here)
# [4] = Day 14, two hours after i.v. bolus DTX, TxR mice
smiles,measurement,setting,value
CC(=O)N1CCN(c2ccc(OCC3COC(Cn4ccnc4)(c4ccc(Cl)cc4Cl)O3)cc2)CC1 (stereo not shown) [Ketoconazole],reduction of the clearance of DTX,[1],49%
"CC(=O)O[C@@]12CO[C@@H]1C[C@H](O)[C@@]1(C)C(=O)[C@H](O)C3=C(C)[C@@H](OC(=O)[C@H](O)[C@@H](NC(=O)OC(C)(C)C)c4ccccc4)C[C@@](O)([C@@H](OC(=O)c4ccccc4)[C@H]21)C3(C)C [DTX, Docetaxel]",percentage of tumor size increase,"PC3-TxR tumor xenografts; TxR tumor xenografts, two weeks after drug administration, PIP 50 mg/kg daily p.o.",217%
same,inhibitory effect on the tumor growth in TxR tumor xenografts,"PC3-TxR tumor xenografts; model verification experiment, n = 3",no inhibitory effect
same,DTX plasma concentration,[2]; [4],703.847 ± 311.129 ng/mL
same,"DTX tissue concentration, Brain",[2]; [4],0.022 ± 0.009 ng/mg
same,"DTX tissue concentration, Kidney",[2]; [4],2.322 ± 1.447 ng/mg
same,"DTX tissue concentration, Liver",[2]; [4],1.080 ± 0.763 ng/mg
same,"DTX tissue concentration, Tumor",[2]; [4],1.312 ± 0.754 ng/mg
same,concentration at 2 h,[2]; brain,22 ng/g
same,concentration at 2 h,[2]; kidney,2320 ng/g
same,concentration at 2 h,[2]; liver,1080 ng/g
same,concentration at 2 h,[2]; lung,5160 ± 2890 ng/g
same,concentration at 2 h,[2]; plasma,0.704 µg/mL
same,concentration at 2 h,[2]; tumor,1310 ng/g
same,cell uptake of DTX,"P-gp; DTX 1 μM, absence of PIP",0.35 ± 0.05 nmol/min/mg protein
same,cell uptake of DTX,"P-gp; DTX 5 μM, absence of PIP",2.44 ± 0.14 nmol/min/mg protein
same,cell uptake of DTX,"P-gp; DTX 5 μM, after pre-incubation with PIP",3.57 ± 0.75 nmol/min/mg protein
same,cell uptake of DTX,"P-gp; DTX 10 μM, absence of PIP",3.30 ± 0.38 nmol/min/mg protein
same,cell uptake of DTX,"P-gp; DTX 10 μM, after pre-incubation with PIP",5.20 ± 0.53 nmol/min/mg protein
same,percentage of bodyweights,[3],79%
same,percentage of tumor size increase,PC3 tumor xenografts,55%
same,IC50,"PC3-TxR cells; read-out: IC50 of DTX on PC3-TxR, DTX + 5 μg/ml PIP",0.0176 µM
same,IC50,"PC3-TxR cells; read-out: IC50 of DTX on PC3-TxR, DTX + 10 μg/ml PIP",0.0104 µM
same,IC50,"PC3-TxR cells; read-out: IC50 of DTX on PC3-TxR, DTX + 25 μg/ml PIP",0.0055 µM
same,IC50,"PC3-TxR cells; read-out: IC50 of DTX on PC3-TxR, DTX alone",0.0414 µM
